# In ChEMBL document CHEMBL5360604, “Novel Dihydroorotate Dehydrogenase Inhibitors for Treating Acute Myelogenous Leukemia” (ACS Med Chem Lett, 2023):
# System: MOLM-13
# Assay: Antiproliferative activity against human MOLM-13 cells assessed as reduction in cell viability incubated for 72 hrs by CellTiter-Glo assay
# Assay type: functional, cell-based
# Settings: MOLM-13, 72 h
row,Compound,IC50
1,Cc1cn(-c2cc(O[C@@H](C)C(F)(F)F)c(C(=O)Nc3c(F)cccc3Cl)cc2F)nc1[C@H](C)O,0.03 nM
2,Cc1cn(-c2cc(O[C@@H](C)C(F)(F)F)c(C(=O)Nc3c(C)n[nH]c3Cl)cc2F)nc1[C@@H](C)O,0.26 nM
3,Cc1cn(-c2cc(O[C@@H](C)C(F)(F)F)c(C(=O)Nc3c(C)n[nH]c3Cl)cc2F)nc1[C@H](C)O,0.21 nM
4,Cc1cn(-c2cc(O[C@@H](C)C(F)(F)F)c(C(=O)Nc3c(C)n[nH]c3Cl)cc2F)nc1C(C)(C)O,0.09 nM
5,Cc1cn(-c2cc(O[C@@H](C)C(F)(F)F)c(C(=O)Nc3c(F)cccc3Cl)cc2F)nc1[C@@H](C)O,0.08 nM
6,Cc1cn(-c2cc(O[C@@H](C)C(F)(F)F)c(C(=O)Nc3c(F)cccc3Cl)cc2F)nc1C(C)(C)O,0.07 nM
